This data set in a line: Bulk density and tapped density comparison of atovaquone crystalline forms. Type of data set: physicochemical. To be noted: powder of the crystalline form.

Turning to `O=C1C(O)=C([C@H]2CC[C@H](c3ccc(Cl)cc3)CC2)C(=O)c2ccccc21` [Form III (ATO-8110), trans-2-[4-(4-chlorophenyl)cyclohexyl]-3-hydroxy-1,4-naphthoquinone], the Bulk density is 0.2975 g/mL and the Tapped density is 0.4010 g/mL.

`O=C1C(O)=C([C@H]2CC[C@H](c3ccc(Cl)cc3)CC2)C(=O)c2ccccc21` [Form I (ATO-8094P), trans-2-[4-(4-chlorophenyl)cyclohexyl]-3-hydroxy-1,4-naphthoquinone] displayed a Bulk density of 0.4802 g/mL and a Tapped density of 0.6402 g/mL.

As to `O=C1C(O)=C([C@H]2CC[C@H](c3ccc(Cl)cc3)CC2)C(=O)c2ccccc21` [Form IPCA-ATO (ATO-8099), trans-2-[4-(4-chlorophenyl)cyclohexyl]-3-hydroxy-1,4-naphthoquinone], the Bulk density came out at 0.2353 g/mL and the Tapped density came to 0.3801 g/mL.

For the origin of these results see patent US20090221715A1, “NOVEL POLYMORPH OF ATOVAQUONE” (priority 2008, published 2009).
